Source: PMC9422153, “A novel antibiotic combination of linezolid and polymyxin B octapeptide PBOP against clinical Pseudomonas aeruginosa strains” (Annals of Clinical Microbiology and Antimicrobials, 2022)
≈ marks a conversion by molar mass, not a printed value. Where two headings read alike, the source gives them in different places. Bridge positions count the residues as written; N and C are the ends. Square brackets hold non-standard residues; d marks the D form. Peptide text beside a SMILES is read from it. Dab = NCC[C@H](N)C(=O)O

Legend:
P. aeruginosa PAB41 = assay: MIC, micro-dilution method; format: cell-based; settings: Pseudomonas aeruginosa
Experimental: (§1) The MICs (minimal inhibitory concentrations) were determined for different P. aeruginosa strains using micro-dilution method, with a concentration of 1 × 10^5 CFU/mL on LB broth for 24 h, according to the published procedures. The experiment was carried out in three repeats.

P. aeruginosa ATCC27853 = assay: MIC, micro-dilution method; format: cell-based; settings: Pseudomonas aeruginosa
Experimental: as §1

P. aeruginosa PA14 [1] = assay: MIC, micro-dilution method; format: cell-based; settings: Pseudomonas aeruginosa
Experimental: as §1

P. aeruginosa PA2 = assay: MIC, micro-dilution method; format: cell-based; settings: Pseudomonas aeruginosa
Experimental: as §1

PA2 = assay: Time-kill assay, bacterial burdens in vitro; format: cell-based, Pseudomonas aeruginosa; settings: PA2, 1 × 10^5 CFU in 96-well plates; 1 h, 6 h, 12 h, 24 h; LP compared to single-treated groups
Experimental: (§2) To explore the antibacterial activity of LP combination in the P. aeruginosa in vitro, PA14 were cultured in 96-well plates and were treated with PBS, linezolid, PBOP or LP for 1 h, 6 h, 12 h, and 24 h.
(§3) A1–A4 1 × 10^5 CFU of PA14 were seeded in 96-well plates and treated with PBS, linezolid, PBOP or combination of linezolid and PBOP (LP) for 1 h (A1), 6 h (A2), 12 h (A3), and 24 h (A4). The bacteria burdens on the LB agar plates were counted. B1–B4 1 × 10^5 CFU of PA2 were seeded in 96-well plates and treated with PBS, linezolid, PBOP or LP for 1 h (B1), 6 h (B2), 12 h (B3), and 24 h (B4). C1–C4 1 × 10^5 CFU of PAB41 were seeded in 96-well plates and treated with PBS, linezolid, PBOP or LP for 1 h (C1), 6 h (C2), 12 h (C3), and 24 h (C4). The bacteria burdens were determined as described above.

PAB41 = assay: Time-kill assay, bacterial burdens in vitro; format: cell-based, Pseudomonas aeruginosa; settings: PAB41, 1 × 10^5 CFU in 96-well plates; 1 h, 6 h, 12 h, 24 h; LP compared to single-treated groups
Experimental: as §2, §3

[2] = test system: C. elegans infected with PA14; assay: C. elegans infection model; format: in vivo, Caenorhabditis elegans; settings: PA14 infection on SK plate, linezolid 8 μg/mL, PBOP 16 μg/mL
Experimental: To determine the protective effect of LP, all groups of C. elegans were infected with PA14 in slow killing (SK) agar plate and were treated with PBS, linezolid (8 μg/mL), PBOP (16 μg/mL) or LP. The mortality of the infected C. elegans was evaluated for 7 days. […] The bacterial loads inside the C. elegans were counted at 12 h or 24 h post-infection as previously described. Briefly, the infected nematodes were mixed with silicon carbide particles and vortexed at maximum speed for one minute. The resulting suspension was serially diluted and plated on a selective agar plate to determine the bacterial CFU. This experiment was performed in triplicate.

P. aeruginosa PA14 [3] = format: cell-based, Pseudomonas aeruginosa
Experimental: Synergistic effect of the 6 polymyxin B or polymyxin E derivatives in combination with 5 conventional antibacterial agents was detected using the checkerboard method as described on the previous study. Briefly, the serial concentrations of test compounds were prepared by a two-dimensional array. The tested dilutions were based on the MICs of the two different compounds. The fractional inhibitory concentration index (FIC) was applied to illuminate the checkerboard test based on formulas as follows: FIC Index = […] = MICA+B/MICA, and FICB = MICB+A/MICB. The value of MICA+B is indicated as the MIC value of Compound A with Compound B, and equally for MICB+A. […] The experiments were repeated in triplicate.

[4] = test system: all tested P. aeruginosa strains; format: cell-based, Pseudomonas aeruginosa; settings: 24 h
Experimental: as §1

[5] = P. aeruginosa PAB41 (carbapenem-resistant clinical strain), micro-dilution, 1 × 10^5 CFU/mL, LB broth, 24 h, three repeats, read-out: MIC
[6] = P. aeruginosa ATCC27853, micro-dilution, 1 × 10^5 CFU/mL, LB broth, 24 h, three repeats, read-out: MIC
[7] = P. aeruginosa PA14, micro-dilution, 1 × 10^5 CFU/mL, LB broth, 24 h, three repeats, read-out: MIC
[8] = P. aeruginosa PA2 (multidrug-resistant clinical strain), micro-dilution, 1 × 10^5 CFU/mL, LB broth, 24 h, three repeats, read-out: MIC

SMILES | MIC (P. aeruginosa PAB41; [5]) [µg/mL] | MIC (P. aeruginosa ATCC27853; [6]) [µg/mL] | MIC (P. aeruginosa PA14 [1]; [7]) [µg/mL] | MIC (P. aeruginosa PA2; [8]) [µg/mL] | FIC (lowest FIC Index) combined with Erythromycin (P. aeruginosa PA14 [3]) | FIC (lowest FIC Index) combined with Lincomycin (P. aeruginosa PA14 [3]) | FIC (lowest FIC Index) combined with Linezolid (P. aeruginosa PA14 [3]) | FIC (lowest FIC Index) combined with Nisin (P. aeruginosa PA14 [3]) | FIC (lowest FIC Index) combined with Vancomycin (P. aeruginosa PA14 [3]) | MIC [4] | other results
CC1(C)S[C@@H]2[C@H](NC(=O)[C@H](N)c3ccccc3)C(=O)N2[C@H]1C(=O)O [Ampicillin, ampicillin] | 8 (≈ 22.9 µM) | 4 (≈ 11.4 µM) | – | – | – | – | – | – | – | – | –
CN(C)[C@@H]1C(O)=C(C(N)=O)C(=O)[C@@]2(O)C(O)=C3C(=O)c4c(O)ccc(Cl)c4[C@@](C)(O)[C@H]3C[C@@H]12 [Chlortetracycline, chlortetracycline] | 8 (≈ 16.7 µM) | 4 (≈ 8.35 µM) | 4 (≈ 8.35 µM) | 4 (≈ 8.35 µM) | – | – | – | – | – | – | –
CC[C@H]1OC(=O)[C@H](C)[C@@H](O[C@H]2C[C@@](C)(OC)[C@@H](O)[C@H](C)O2)[C@H](C)[C@@H](O[C@@H]2O[C@H](C)C[C@H](N(C)C)[C@H]2O)[C@](C)(O)C[C@@H](C)C(=O)[C@H](C)[C@@H](O)[C@]1(C)O [Erythromycin, erythromycin] | > 256 | > 256 | > 256 | > 256 | – | – | – | – | – | – | –
CCC[C@@H]1C[C@@H](C(=O)N[C@@H]([C@H]2O[C@H](SC)[C@H](O)[C@@H](O)[C@H]2O)[C@@H](C)O)N(C)C1 [Lincomycin, lincomycin] | > 256 | > 256 | > 256 | > 256 | – | – | – | – | – | – | –
CC(=O)NC[C@H]1CN(c2ccc(N3CCOCC3)c(F)c2)C(=O)O1 [Linezolid, linezolid] | > 256 | > 256 | > 256 | > 256 | – | – | – | – | – | – | bacterial CFU / bactericidal activity (PA2): no remarkably bactericidal activity; bacterial CFU / bactericidal activity (PAB41): no remarkably bactericidal activity; bacterial loads inside C. elegans ([2]; 12 h and 24 h post infection): a great number of bacteria were detected; survival of infected C. elegans ([2]; monitored 7 days): died at day 3
CC1COc2c(N3CCN(C)CC3)c(F)cc3c(=O)c(C(=O)O)cn1c23 (centres unmarked) [Ofloxacin, ofloxacin] | 1 (≈ 2.77 µM) | 0.5 (≈ 1.38 µM) | 0.5 (≈ 1.38 µM) | 0.5 (≈ 1.38 µM) | – | – | – | – | – | – | –
CC(C)C[C@@H]1NC(=O)[C@@H](Cc2ccccc2)NC(=O)[C@H](CCN)NC(=O)[C@@H](N)CCNC(=O)[C@H]([C@@H](C)O)NC(=O)[C@H](CCN)NC(=O)[C@H](CCN)NC1=O [PBHP, polymyxin B heptapeptide] (H-[Dab][Dab][dF]L[Dab][Dab]T; lactam 1-C (inferred); N-terminus assumed) | – | – | – | – | 0.281 | 0.188 | 0.141 | 0.375 | 0.141 | over 256 µg/mL | –
CC(C)C[C@@H]1NC(=O)[C@@H](Cc2ccccc2)NC(=O)[C@H](CCN)NC(=O)[C@@H](NC(=O)[C@H](CCN)NC(=O)[C@@H](N)[C@@H](C)O)CCNC(=O)[C@H]([C@@H](C)O)NC(=O)[C@H](CCN)NC(=O)[C@H](CCN)NC1=O [PBNP, polymyxin B nonapeptide] (H-T[Dab][Dab][Dab][dF]L[Dab][Dab]T; lactam 3-C (inferred); N-terminus assumed) | – | – | – | – | 0.188 | 0.156 | 0.156 | 0.250 | 0.250 | over 256 µg/mL | –
CC(C)C[C@@H]1NC(=O)[C@@H](CC(C)C)NC(=O)[C@H](CCN)NC(=O)[C@@H](N)CCNC(=O)[C@H]([C@@H](C)O)NC(=O)[C@H](CCN)NC(=O)[C@H](CCN)NC1=O [PEHP, polymyxin E heptapeptide] (H-[Dab][Dab][dL]L[Dab][Dab]T; lactam 1-C (inferred); N-terminus assumed) | – | – | – | – | 0.258 | 0.250 | 0.141 | 0.266 | 0.156 | over 256 µg/mL | –
CC(C)C[C@@H]1NC(=O)[C@@H](CC(C)C)NC(=O)[C@H](CCN)NC(=O)[C@@H](NC(=O)[C@H](CCN)NC(=O)[C@@H](N)[C@@H](C)O)CCNC(=O)[C@H]([C@@H](C)O)NC(=O)[C@H](CCN)NC(=O)[C@H](CCN)NC1=O [PENP, polymyxin E nonapeptide] (H-T[Dab][Dab][Dab][dL]L[Dab][Dab]T; lactam 3-C (inferred); N-terminus assumed) | – | – | – | – | 0.281 | 0.125 | 0.281 | 0.375 | 0.188 | over 256 µg/mL | –
CC(C)C[C@@H]1NC(=O)[C@@H](CC(C)C)NC(=O)[C@H](CCN)NC(=O)[C@@H](NC(=O)[C@@H](N)CCN)CCNC(=O)[C@H]([C@@H](C)O)NC(=O)[C@H](CCN)NC(=O)[C@H](CCN)NC1=O [PEOP, polymyxin E octapeptide] (H-[Dab][Dab][Dab][dL]L[Dab][Dab]T; lactam 2-C (inferred); N-terminus assumed) | – | – | – | – | 0.313 | 0.141 | 0.188 | 0.313 | 0.125 | over 256 µg/mL | –
CC1(C)S[C@@H]2[C@H](NC(=O)Cc3ccccc3)C(=O)N2[C@H]1C(=O)O [Penicillin G, penicillin G] | 4 (≈ 12 µM) | 8 (≈ 23.9 µM) | 8 (≈ 23.9 µM) | 4 (≈ 12 µM) | – | – | – | – | – | – | –
CN(C)c1cc(NC(=O)CNC(C)(C)C)c(O)c2c1C[C@H]1C[C@H]3[C@H](N(C)C)C(O)=C(C(N)=O)C(=O)[C@@]3(O)C(O)=C1C2=O [Tigecycline, tigecycline] | 2 (≈ 3.41 µM) | 4 (≈ 6.83 µM) | 2 (≈ 3.41 µM) | 4 (≈ 6.83 µM) | – | – | – | – | – | – | –
CN[C@H](CC(C)C)C(=O)N[C@H]1C(=O)N[C@@H](CC(N)=O)C(=O)N[C@H]2C(=O)N[C@H]3C(=O)N[C@H](C(=O)N[C@H](C(=O)O)c4cc(O)cc(O)c4-c4cc3ccc4O)[C@H](O)c3ccc(c(Cl)c3)Oc3cc2cc(c3O[C@@H]2O[C@H](CO)[C@@H](O)[C@H](O)[C@H]2O[C@H]2C[C@](C)(N)[C@H](O)[C@H](C)O2)Oc2ccc(cc2Cl)[C@H]1O [Vancomycin, vancomycin] | – | – | – | – | – | – | – | – | – | – | MIC (P. aeruginosa PA14 [1]; PA14, 24 h): > 256 µg/mL; MIC (P. aeruginosa PA2; PA2, 24 h): > 256 µg/mL; MIC (P. aeruginosa PAB41; PAB41, 24 h): > 256 µg/mL; MIC (P. aeruginosa ATCC27853; ATCC27853, 24 h): > 256 µg/mL
